Data on 25 molecules can be found in ChEMBL document CHEMBL2046329, “Furin inhibitors: importance of the positive formal charge and beyond” (Bioorg Med Chem, 2012).

What is called Ki is a dissociation constant, usually derived from enzyme kinetics or from competition with a known ligand.

Residues, ends and D or L forms follow the SMILES beside them.

In the assay the target is Furin (Homo sapiens, UniProt P09958). Nature of the assay: Inhibition of furin.
Furin, sequence (P09958 whole entry): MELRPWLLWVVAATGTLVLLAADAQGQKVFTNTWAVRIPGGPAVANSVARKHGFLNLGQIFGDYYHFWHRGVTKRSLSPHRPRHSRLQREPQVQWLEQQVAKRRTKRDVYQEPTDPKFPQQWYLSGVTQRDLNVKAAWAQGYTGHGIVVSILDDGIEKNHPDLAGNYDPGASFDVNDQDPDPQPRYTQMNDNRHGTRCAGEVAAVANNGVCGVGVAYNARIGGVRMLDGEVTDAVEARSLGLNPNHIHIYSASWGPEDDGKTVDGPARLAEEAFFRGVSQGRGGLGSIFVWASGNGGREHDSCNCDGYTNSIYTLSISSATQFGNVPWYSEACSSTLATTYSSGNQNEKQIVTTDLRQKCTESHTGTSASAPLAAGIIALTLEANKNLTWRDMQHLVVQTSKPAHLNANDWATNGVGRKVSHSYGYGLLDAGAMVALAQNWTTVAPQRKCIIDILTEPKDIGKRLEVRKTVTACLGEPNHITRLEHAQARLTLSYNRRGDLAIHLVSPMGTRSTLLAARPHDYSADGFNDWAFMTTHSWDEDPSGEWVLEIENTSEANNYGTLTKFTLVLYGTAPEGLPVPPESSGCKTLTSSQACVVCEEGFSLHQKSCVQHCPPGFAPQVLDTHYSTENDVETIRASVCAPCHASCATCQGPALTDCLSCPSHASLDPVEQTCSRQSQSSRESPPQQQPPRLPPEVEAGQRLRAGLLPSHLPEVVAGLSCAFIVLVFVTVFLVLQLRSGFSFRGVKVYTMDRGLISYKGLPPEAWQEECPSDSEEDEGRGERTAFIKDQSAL
In the case of `CC(=O)N[C@@H](CC(C)C)C(=O)N[C@@H](Cc1ccc(O)cc1)C(=O)N[C@@H](CCCN=C(N)N)C(=O)N[C@H](C(=O)N[C@@H](CCCCN)C(=O)N[C@@H](CCCN=C(N)N)C(N)=O)C(C)C` (Ac-LYRVKR-NH2), the affinity corresponds to a Ki of 3400 nM. Next, `CCCCCCCCCC(=O)N[C@@H](CCCN=C(N)N)C(=O)N[C@H](C(=O)N[C@@H](CCCCN)C(=O)Nc1ccc(C(=N)N)cc1)C(C)C`: 3.3 nM.

As for `N=C(N)NCCC[C@H](NC(=O)[C@H](CCCNC(=N)N)NC(=O)[C@H](CCCNC(=N)N)NC(=O)[C@H](CCCNC(=N)N)NC(=O)[C@@H](N)CCCNC(=N)N)C(=O)O` (H-RRRRR-OH), the Ki worked out at 990 nM. For the molecule `CC(C)[C@H](NC(=O)[C@H](CCCNC(=N)N)NCC(=O)Oc1ccccc1)C(=O)N[C@@H](CCCNC(=N)N)C(=O)NCCCCCN`, the Ki is 553 nM. Under `CC(C)[C@H](NC(=O)[C@H](CCCNC(=N)N)NCC(=O)Oc1ccccc1)C(=O)N[C@@H](CCCNC(=N)N)C(=O)Nc1ccc(CNC(=N)N)cc1` stands 1430 nM; under `CC(C)[C@H](NC(=O)[C@H](CCCN=C(N)N)NCC(=O)Oc1ccccc1)C(=O)N[C@@H](CCCN=C(N)N)C(=O)Nc1cccc(CN)c1`, 1320 nM; under `CC(C)[C@H](NC(=O)[C@H](CCCN=C(N)N)NCC(=O)Oc1ccccc1)C(=O)N[C@@H](CCCN=C(N)N)C(=O)NCCCCCN=C(N)N`, 1070 nM.

For the molecule `CC(C)C[C@H](NC(=O)[C@@H](N)CC(C)C)C(=O)N[C@@H](CCCNC(=N)N)C(=O)N[C@H](C(=O)N[C@@H](CCCCN)C(=O)N[C@@H](CCCNC(=N)N)C(N)=O)C(C)C`, the affinity corresponds to a Ki of 800 nM.

For the molecule `CC(C)C[C@H](NC(=O)[C@@H](N)CC(C)C)C(=O)N[C@@H](CCCNC(=N)N)C(=O)N[C@H](C(=O)N[C@@H](CCCCN)C(=O)N[C@@H](CCCNC(=N)N)C(=O)O)C(C)C`, affinity was put at a Ki of 420 nM. Next, `CC(=O)N[C@@H](CC(C)C)C(=O)N[C@@H](CC(C)C)C(=O)N[C@@H](CCCN=C(N)N)C(=O)N[C@H](C(=O)N[C@@H](CCCCN)C(=O)N[C@@H](CCCN=C(N)N)C(N)=O)C(C)C`: 1400 nM; `N=C(N)NCCC[C@H](NC(=O)[C@H](CCCNC(=N)N)NC(=O)[C@H](CCCNC(=N)N)NC(=O)[C@@H](N)CCCNC(=N)N)C(=O)O` (H-RRRR-OH): 6400 nM; `CC(C)[C@H](NC(=O)[C@H](CCCN=C(N)N)NCC(=O)Oc1ccccc1)C(=O)N[C@@H](CCCN=C(N)N)C(=O)NC1CCN(C(=N)N)CC1`: 53 nM. Under `CC(C)[C@H](NC(=O)[C@H](CCCNC(=N)N)NCC(=O)Oc1ccccc1)C(=O)N[C@@H](CCCNC(=N)N)C(=O)NC1CCNCC1` stands 9710 nM; under `CC(C)[C@H](NC(=O)[C@H](CCCN=C(N)N)NCC(=O)Oc1ccccc1)C(=O)N[C@@H](CCCN=C(N)N)C(=O)NCCCN`, 3020 nM; under `CC(C)[C@H](NC(=O)[C@H](CCCNC(=N)N)NCC(=O)Oc1ccccc1)C(=O)N[C@@H](CCCNC(=N)N)C(=O)NCCCNC(=N)N`, 63 nM. The molecule `CC(C)[C@H](NC(=O)[C@H](CCCNC(=N)N)NCC(=O)Oc1ccccc1)C(=O)N[C@@H](CCCNC(=N)N)C(=O)NCCCCNC(=N)N` registered a Ki of 78 nM. Next, `CC(C)[C@H](NC(=O)[C@H](CCCN=C(N)N)NCC(=O)Oc1ccccc1)C(=O)N[C@@H](CCCN=C(N)N)C(=O)Nc1cccc(CN=C(N)N)c1`: 2730 nM. `CC(=O)N[C@@H](CC(C)C)C(=O)N[C@@H](CC(C)C)C(=O)N[C@@H](CCCN=C(N)N)C(=O)N[C@H](C(=O)N[C@@H](CCCCN)C(=O)N[C@@H](CCCN=C(N)N)C(=O)O)C(C)C` yielded a Ki of 3500 nM. Under `CC(C)[C@H](NC(=O)[C@H](CCCNC(=N)N)NCC(=O)Oc1ccccc1)C(=O)N[C@@H](CCCNC(=N)N)C(=O)NCCCCN` stands 7490 nM; under `CC(=O)N[C@@H](CC(C)C)C(=O)N[C@@H](CCCCN)C(=O)N[C@@H](CCCN=C(N)N)C(=O)N[C@H](C(=O)N[C@@H](CCCCN)C(=O)N[C@@H](CCCN=C(N)N)C(N)=O)C(C)C` (Ac-LKRVKR-NH2), 190 nM. `NC(N)=NCCC[C@H](NC(=O)[C@H](CCCN=C(N)N)NC(=O)[C@H](CCCN=C(N)N)NC(=O)[C@H](CCCN=C(N)N)NC(=O)[C@H](CCCN=C(N)N)NC(=O)[C@@H](N)CCCN=C(N)N)C(=O)O`: affinity was put at a Ki of 114 nM. `CCCCCCCCCC(=O)N[C@@H](CCCN=C(N)N)C(=O)N[C@H](C(=O)N[C@@H](CCCN=C(N)N)C(=O)Nc1ccc(C(=N)N)cc1)C(C)C` displayed a Ki of 1.6 nM. Next, `CSCC[C@H](NC(=O)[C@H](CC(C)C)NC(C)=O)C(=O)N[C@@H](CCCNC(=N)N)C(=O)N[C@H](C(=O)N[C@@H](CCCCN)C(=O)N[C@@H](CCCNC(=N)N)C(N)=O)C(C)C` (Ac-LMRVKR-NH2): 1900 nM. `CCc1ccc(NC(=O)[C@H](CCCNC(=N)N)NC(=O)[C@@H](NC(=O)[C@H](CCCNC(=N)N)NCC(=O)Oc2ccccc2)C(C)C)cc1` yielded a Ki of 627 nM. Next, `CC(=O)N[C@@H](CCCNC(=N)N)C(=O)N[C@H](C(=O)N[C@@H](CCCNC(=N)N)C(=O)Nc1ccc(C(=N)N)cc1)C(C)C`: 1 nM.
